Measurements as given in US20140315797A1, “Novel N-Terminally Modified Insulin Derivatives” (priority 2010, published 2014).
Starred links: 1 amine or outer side, 2 acyl side, 3 side chain; linkers in the order of their positions; H or OH if unused. Positions of bridges follow the written chain, without caps; N, C: chain ends. Groups on a side chain read outwards from the residue. Chains are numbered I, II in the order given. No end group written: not given here. *: point of attachment. Phe(Nα-CONH2) = NC(=O)N[C@@H](Cc1ccccc1)C(=O)*; C20 diacid = O=C(O)CCCCCCCCCCCCCCCCCCC(=O)*; C18 diacid = O=C(O)CCCCCCCCCCCCCCCCC(=O)*; C16 diacid = O=C(O)CCCCCCCCCCCCCCC(=O)*; NMe2Phe = CN(C)[C@@H](Cc1ccccc1)C(=O)*; γGlu = O=C(O)[C@H](CCC(=O)[*:2])N[*:1]; Hydantoyl = NC(=O)NCC(=O)*; AEEA = NCCOCCOCC(=O)O; Me2Gly = CN(C)CC(=O)*

Tests used:
[1] = molecular target: T1, human insulin receptor (IR-A) (Homo sapiens, UniProt P06213); settings: relative to affinity of human insulin; […] HSA in binding buffer
Procedure: (§1) The affinity of the acylated insulin analogues of this invention for the human insulin receptor is determined by a SPA assay (Scintillation Proximity Assay) microtiterplate antibody capture assay. SPA-PVT antibody-binding beads, anti-mouse reagent (Amersham Biosciences, Cat No. PRNQ0017) are mixed with 25 ml of binding buffer (100 mM HEPES pH 7.8; 100 mM sodium chloride, 10 mM MgSO4, 0.025% Tween-20). Reagent mix for a single Packard Optiplate (Packard No. 6005190) is composed of 2.4 μl of a 1:5000 diluted purified recombinant human insulin receptor (either with or without exon 11), an amount of a stock solution of A14Tyr[^125I]-human insulin corresponding to 5000 cpm per 100 μl of reagent mix, 12 μl of a 1:1000 dilution of F12 antibody, 3 ml of SPA-beads and binding buffer to a total of 12 ml. A total of 100 μl reagent mix is then added to each well in the Packard Optiplate and a dilution series of the insulin derivative is made in the Optiplate from appropriate samples. The samples are then incubated for 16 hours while gently shaken. The phases are the then separated by centrifugation for 1 min and the plates counted in a Topcounter. The binding data were fitted using the nonlinear regression algorithm in the GraphPad Prism 2.01 (GraphPad Software, San Diego, Calif.) and affinities are expressed relative (in percentage (%)) to the affinity of human insulin.
A related assay is also used wherein the binding buffer also contains 1.5% HSA in order to mimic physiological conditions

primary rat adipocytes = assay: Lipogenesis in rat adipocytes; assay type: cell-based; settings: relative potency vs human insulin, unit %
Procedure: As a measure of in vitro potency of the insulins of the invention, lipogenesis can be used.
Primary rat adipocytes are isolated from the epididymale fat pads and incubated with 3H-glucose in buffer containing e.g. 0.1% fat free HSA and either standard (human insulin, HI) or insulin of the invention. The labelled glucose is converted into extractable lipids in a dose dependent way, resulting in full dose response curves.

[2] = molecular target: T1, human insulin receptor (IR-A); assay: Insulin receptor affinity, SPA antibody capture assay, 0% HSA; assay type: binding; settings: relative to affinity of human insulin
Procedure: as §1

[3] = Hydrophobicity by isocratic reverse phase HPLC (k'rel); assay type: physicochemical; settings: human insulin = 1, RP-HPLC pH 7.3
Procedure: The elution time of the insulin derivative is compared to that of human insulin (herein designated HI) or another derivative with a known hydrophibicity under the same conditions. The hydrophobicity, k′rel, is calculated as: k′relderiv=((tderiv−t0)/(tref−t0))*k′relref. Using HI as reference: k′relref=k′relHI=1. The void time of the HPLC system, t0, is determined by injecting 5 μl of 0.1 mM NaNO3. Running conditions:
Column: Lichrosorb RP-C18, 5 μm, 4×250 mm
Buffer A: 0.1 M natrium phosphate pH 7.3, 10 vol % CH3CN
After running an initial gradient, the isocratic level for running the derivative and reference (for example HI) is chosen, and the elution times of the derivative and reference under isocratic conditions are used in the above equation to calculate k′relderiv.

duodenum lumen enzymes = assay: Degradation of insulin analogs using duodenum lumen enzymes; settings: degradation half time divided by that of reference insulin; rat duodenum enzymes, pH 7.4, 37° C.
Procedure: Degradation of insulin analogs using duodenum lumen enzymes (prepared by filtration of duodenum lumen content) from SPD rats. The assay is performed by a robot in a 96 well plate (2 ml) with 16 wells available for insulin analogs and standards. Insulin analogs ˜15 μM are incubated with duodenum enzymes in 100 mM Hepes, pH=7.4 at 37° C., samples are taken after 1, 15, 30, 60, 120 and 240 min and reaction quenched by addition of TFA. Intact insulin analogs at each point are determined by RP-HPLC. Degradation half time is determined by exponential fitting of the data and normalized to half time determined for the reference insulins, A14E, B25H, desB30 human insulin or human insulin in each assay. The amount of enzymes added for the degradation is such that the half time for degradation of the reference insulin is between 60 min and 180 min.

[4] = Chemical stability of insulin analogues formulated in lipid formulations (UPLC purity, SEC HMWP); assay type: physicochemical; settings: lipid formulation, 4 weeks, 30° C.
Procedure: Chemical stability of insulin analogues formulated in lipid formulations was assessed according to the protocol described here.
Composition of the formulation: […]
Insulin to be tested (75 μM)
The insulin to be tested (lyophilised from pH 7.5) is dissolved in propylenglycol in the dark for 16 hours. Diglycerol caprylate is added ad the mixture is stirred. Tween 20 is added and the mixture is stirred for 5 minutes. The mixture is gently agitated until it is homogeneous.
Extraction-mix: 1-butanol+0.1% (w/w) Tween80, 0.1M Na2HPO4/NaH2PO4 pH 7.0 • 1. The formulations are allowed to reach room temperature. • 2. To each Eppendorf tube 20 μl of the formulations are added. • 3. Add 490 μl 1-butanol followed by addition of 990 μl of the phosphate buffer. Vortex and incubate at RT for 30 min. • 4. Vortex again and centrifuge at RT at 14000 rpm for 20 min. Analyse the bottom aqueous phase for purity and HMWP formation.
Alternatively another extraction method can be used: • 1. The formulations are allowed to reach room temperature. • 2. To each Eppendorf tube 50 μl of the formulations are added. • 3. Add 950 μl of extraction buffer. Vortex well. Immediately after, load 800 μl (2×400 μl) for purification on the spin column. See spin protocol below. Ion Exchange on Q Spin Columns from Sartorius
(In the following all spin steps are for 5 min at 2000×g.) • 1. Apply 400 μl equilibration buffer to each spin column, and spin. Discard the flow-through. • 2. Apply 2×400 μl of each extracted sample. Spin the column between each application. Discard the flow-through. • 3. Apply 400 μl washing buffer to wash each spin column, and spin. Discard the wash. • 4. Apply 400 μl elution buffer to each spin column, and spin. Analyse the elution for purity and HMWP formation
Column: Waters BEH Shield RP18 UPLC column (2.1×100 mm, 1.7 μm)
Buffer A: 0.09M di-ammonium hydrogen phosphate pH 3.0, 10% (v/v) acetonitrile
Buffer B: 90% acetonitrile.
Column: Waters Insulin HMWP SEC column
Buffer: 500 mM NaCl, 10 mM NaH2PO4, 5 mM H3PO4, 50% (v/v) 2-propanol

T1 sequence (P06213 28-746 isoform P06213-2 limits assumed): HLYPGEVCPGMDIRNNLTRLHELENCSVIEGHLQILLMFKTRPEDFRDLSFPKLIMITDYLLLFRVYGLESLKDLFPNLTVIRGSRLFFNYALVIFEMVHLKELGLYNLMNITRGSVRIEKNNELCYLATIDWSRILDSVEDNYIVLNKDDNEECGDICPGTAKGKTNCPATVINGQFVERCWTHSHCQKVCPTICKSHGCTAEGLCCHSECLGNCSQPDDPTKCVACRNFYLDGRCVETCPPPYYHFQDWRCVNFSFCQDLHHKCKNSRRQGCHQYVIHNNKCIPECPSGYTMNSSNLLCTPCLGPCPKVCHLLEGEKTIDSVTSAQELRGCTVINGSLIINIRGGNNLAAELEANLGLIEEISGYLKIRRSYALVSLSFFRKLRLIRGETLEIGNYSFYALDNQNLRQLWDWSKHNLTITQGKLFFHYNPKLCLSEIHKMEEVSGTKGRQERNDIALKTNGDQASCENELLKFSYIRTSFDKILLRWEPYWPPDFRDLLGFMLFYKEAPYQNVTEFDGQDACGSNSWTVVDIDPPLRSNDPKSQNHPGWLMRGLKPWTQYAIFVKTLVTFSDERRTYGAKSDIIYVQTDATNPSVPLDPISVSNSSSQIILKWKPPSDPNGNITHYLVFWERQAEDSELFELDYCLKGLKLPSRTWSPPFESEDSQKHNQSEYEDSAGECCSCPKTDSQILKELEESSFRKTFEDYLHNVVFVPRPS
T1 sequence (P06213 763-1382 partner limits assumed): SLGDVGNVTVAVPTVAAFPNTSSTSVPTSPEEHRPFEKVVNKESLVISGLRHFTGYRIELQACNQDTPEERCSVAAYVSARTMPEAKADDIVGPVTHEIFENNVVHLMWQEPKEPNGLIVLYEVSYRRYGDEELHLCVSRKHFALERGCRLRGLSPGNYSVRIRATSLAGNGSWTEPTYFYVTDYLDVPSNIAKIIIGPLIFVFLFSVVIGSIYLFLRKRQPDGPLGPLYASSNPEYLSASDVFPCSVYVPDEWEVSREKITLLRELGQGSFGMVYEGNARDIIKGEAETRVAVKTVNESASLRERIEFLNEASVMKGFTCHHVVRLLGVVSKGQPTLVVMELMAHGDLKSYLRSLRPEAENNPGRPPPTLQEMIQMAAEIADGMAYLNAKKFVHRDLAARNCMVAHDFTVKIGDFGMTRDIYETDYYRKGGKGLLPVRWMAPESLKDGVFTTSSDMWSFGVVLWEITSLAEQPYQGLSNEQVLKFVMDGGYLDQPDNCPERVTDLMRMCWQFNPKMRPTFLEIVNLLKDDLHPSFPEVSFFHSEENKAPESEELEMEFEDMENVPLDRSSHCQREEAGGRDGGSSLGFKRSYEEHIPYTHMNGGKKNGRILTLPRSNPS

Substance	Relative IR-A affinity (@ […] HSA) (%)e [1] [%]	Lipogenesis in rat adipocytres (@ 0.1% HSA) rel. to human insulin (primary rat adipocytes) [%]	Relative IR-A affinity (@ 0% HSA) (%) [2] [%]	Hydrophobicity rel. to human insulin [3]	Duodenum degradation. Relative stability vs. A14E, B25H, desB30 human insulin (duodenum lumen enzymes)	HMWP formed (%) 4 weeks [4] [%]	Impurities formed (%) 4 weeks [4] [%]
A1(N,N-Dimethyl), A14E, B1(N,N-dimethyl), desB27, B29K(N^εoctadecanedioyl-gGlu-2xOEG), desB30 human insulin [Example 6]	0.98	0.60	17.0				
A1G(N^α, N^α-Dimethyl), A14E, B1F(N(alpha), N(N^α, N^α-dimethyl), B25H, desB27, B29K(N^εhexadecanedioyl-gGlu-2xOEG), desB30 human insulin [Example 9]	0.33	1.34	2.5	0.10	9.2		
I: NMe2Phe-VNQHLCGSHLVEALHLVCGERGFHYTPK([γGlu-C16 diacid]) / II: Me2Gly-IVEQCCTSICSLEQLENYCN (disulfide I:6-II:6, I:18-II:19, II:5-II:10) [Example 3, A1(N^α,N^α-Dimethyl), A14E, B1(N^α, N^α-dimethyl), B16H, B25H, B29K(N^εhexadecanedioyl-gGlu), desB30 human insulin]	0.06		0.6		3.1		
I: NMe2Phe-VNQHLCGSHLVEALYLVCGERGFHYTPK([AEEA-AEEA-γGlu-C18 diacid]) / II: Me2Gly-IVEQCCTSICSLEQLENYCN (disulfide I:6-II:6, I:18-II:19, II:5-II:10) [Example 1, A1(N^α, N^α-Dimethyl), A14E, B1(N^α, N^α-dimethyl), B25H, B29K(N^εoctadecanedioyl-gGlu-2xOEG), desB30 human insulin]	0.09	0.10	1.5	0.38	1.2	0.4	9.8
I: {Phe(Nα-CONH2)}-VNQHLCGSHLVEALHLVCGERGFFYPK([AEEA-AEEA-γGlu-C20 diacid]) / II: Hydantoyl-IVEQCCTSICSLEQLENYCN (disulfide I:6-II:6, I:18-II:19, II:5-II:10) [Example 22]					7.7		
I: {Phe(Nα-CONH2)}-VNQHLCGSHLVEALHLVCGERGFHYTPK([AEEA-AEEA-γGlu-C20 diacid]) / II: Hydantoyl-IVEQCCTSICSLEQLENYCN (disulfide I:6-II:6, I:18-II:19, II:5-II:10) [Example 16, A1(N^α-Carbamoyl), A14E, B1(N^α-Carbamoyl), B16H, B25H, B29K(N^εeicosanedioyl-gGlu-2xOEG), desB30 human insulin]	0.01		0.1		0.4		
I: {Phe(Nα-CONH2)}-VNQHLCGSHLVEALYLVCGERGFHYPK([AEEA-AEEA-γGlu-C20 diacid]) / II: Hydantoyl-IVEQCCTSICSLEQLENYCN (disulfide I:6-II:6, I:18-II:19, II:5-II:10) [Example 28, A1G(N^αcarbamoyl), A14E, B1F(N^αcarbamoyl), B25H, desB27, B29K(N^εeicosanedioyl-gGlu-2xOEG), desB30 human insulin]	0.25		0.7		2.1		
I: {Phe(Nα-CONH2)}-VNQHLCGSHLVEALYLVCGERGFHYTPK([AEEA-AEEA-γGlu-C18 diacid]) / II: Hydantoyl-IVEQCCTSICSLEQLENYCN (disulfide I:6-II:6, I:18-II:19, II:5-II:10) [Example 12, A1(N^αCarbamoyl), A14E, B1(N^αCarbamoyl), B25H, B29K(N^εoctadecanedioyl-gGlu-2xOEG), desB30 human insulin]	0.06	0.02	0.3	0.15	1.5	0.2	4.4
I: {Phe(Nα-CONH2)}-VNQHLCGSHLVEALYLVCGERGFHYTPK([AEEA-AEEA-γGlu-C20 diacid]) / II: Hydantoyl-IVEQCCTSICSLEQLENYCN (disulfide I:6-II:6, I:18-II:19, II:5-II:10) [Example 15, A1(N^αCarbamoyl), A14E, B1(N^αCarbamoyl), B25H, B29K(N^εeicosanedioyl-gGlu-2xOEG), desB30 human insulin]	0.02		0.2		0.6		
